Results reported in patent publication US5747466A, “3-deoxy-3-descladinose derivatives of erythromycins A and B” (Abbott Laboratories, priority 1996, dated 1998).

Columns and labels:
Test in all cases: In vitro antibacterial activity (MIC), agar dilution
[1] = tested on: PSEUDOMONAS AERUGINOSA K799/WT; format: cell-based; settings: P. aeruginosa K799/WT; BHI agar, 35-37 °C, 20-24 h
[2] = tested on: STAPHYLOCOCCUS AUREUS 1775; format: cell-based; settings: S. aureus 1775; BHI agar, 35-37 °C, 20-24 h
[3] = tested on: PSEUDOMONAS AERUGINOSA 5007; format: cell-based; settings: P. aeruginosa 5007; BHI agar, 35-37 °C, 20-24 h
[4] = tested on: PSEUDOMONAS AERUGINOSA K799/61; format: cell-based; settings: P. aeruginosa K799/61; BHI agar, 35-37 °C, 20-24 h
[5] = tested on: STREPTOCOCCUS BOVIS A-5169; format: cell-based; settings: S. bovis A-5169; BHI agar, 35-37 °C, 20-24 h
ESCHERICHIA COLI SS = format: cell-based; settings: E. coli SS; BHI agar, 35-37 °C, 20-24 h
STR[…] 508 = format: cell-based, Streptococcus agalactiae; settings: S. agalactiae CMX 508; BHI agar, 35-37 °C, 20-24 h
Description: Representative compounds of the present invention were assayed in vitro for antibacterial activity as follows: Twelve petri dishes containing successive aqueous dilutions of the test compound mixed with 10 mL of sterilized Brain Heart Infusion (BHI) agar (Difco 0418-01-5) were prepared. Each plate was inoculated with 1:100 (or 1:10 for slow-growing strains, such as Micrococcus and Streptococcus) dilutions of up to 32 different microorganisms, using a Steers replicator block. The inoculated plates were incubated at 35°-37° C. for 20 to 24 hours. In addition, a control plate, using BHI agar containing no test compound, was prepared and incubated at the beginning and end of each test.
An additional plate containing a compound having known susceptibility patterns for the organisms being tested and belonging to the same antibiotic class as the test compound was also prepared and incubated as a further control, as well as to provide test-to-test comparability. Erythromycin A was used for this purpose.
After incubation, each plate was examined. The minimum inhibitory concentration (MIC) was defined as the lowest concentration of drug yielding no growth, a slight haze, or sparsely isolated colonies on the inoculum spot as compared to the growth control.

CANDIDA ALBICANS CCH 442 = format: cell-based; settings: C. albicans CCH 442; BHI agar, 35-37 °C, 20-24 h
[6] = tested on: STAPHYLOCOCCUS AUREUS A5177; format: cell-based; settings: S. aureus A5177; BHI agar, 35-37 °C, 20-24 h
ESCHERICHIA COLI DC-2 = format: cell-based; settings: E. coli DC-2; BHI agar, 35-37 °C, 20-24 h

SMILES | minimum inhibitory concentration (MIC) [1] | minimum inhibitory concentration (MIC) [2] | minimum inhibitory concentration (MIC) [3] | minimum inhibitory concentration (MIC) [4] | minimum inhibitory concentration (MIC) [5] | minimum inhibitory concentration (MIC) (ESCHERICHIA COLI SS) | minimum inhibitory concentration (MIC) (STR[…] 508) | minimum inhibitory concentration (MIC) (CANDIDA ALBICANS CCH 442) | minimum inhibitory concentration (MIC) [6] | minimum inhibitory concentration (MIC) (ESCHERICHIA COLI DC-2)
CC[C@H]1OC(=O)[C@H](C)C[C@H](C)[C@@H](O[C@@H]2O[C@H](C)C[C@H](N(C)C)[C@H]2O)[C@](C)(OC)C[C@@H](C)C(=O)[C@H](C)[C@@H](O)[C@]1(C)O [Ex. 1] | > 100 | > 100 | > 100 | > 100 | 0.78 | 0.78 | 3.1 | > 100 | 25 | > 100
CC[C@H]1OC(=O)[C@H](C)C[C@H](C)[C@@H](O[C@@H]2O[C@H](C)C[C@H](N(C)C)[C@H]2O)[C@](C)(OC)C[C@@H](C)C(=NO)[C@H](C)[C@@H](O)[C@]1(C)O [Ex. 2] | > 100 | > 100 | > 100 | > 100 | 0.78 | 0.78 | 0.78 | > 100 | 25 | > 100
CC[C@H]1OC(=O)[C@H](C)C[C@H](C)[C@@H](O[C@@H]2O[C@H](C)C[C@H](N(C)C)[C@H]2O)[C@](C)(OC)C[C@@H](C)C(=NOC)[C@H](C)[C@@H](O)[C@]1(C)O [Ex. 6] | > 100 | > 100 | > 100 | > 100 | 0.39 |  | 0.39 | > 100 | 6.2 | 0.78
CC[C@H]1OC(=O)[C@H](C)C[C@H](C)[C@@H](O[C@@H]2O[C@H](C)C[C@H](N(C)C)[C@H]2O)[C@](C)(OC)C[C@@H](C)C(=O)[C@H](C)[C@H]2N(CCc3ccc(Oc4ccccc4)cc3)C(=O)O[C@]12C [Ex. 5] | > 100 | 25 | > 100 | > 100 | 1.56 |  | 1.56 | 100 | 6.2 | 12.5
CC[C@H]1OC(=O)[C@H](C)[C@@H](O[C@H]2C[C@@](C)(OC)[C@@H](O)[C@H](C)O2)[C@H](C)[C@@H](O[C@@H]2O[C@H](C)C[C@H](N(C)C)[C@H]2O)[C@](C)(O)C[C@@H](C)C(=O)[C@H](C)[C@@H](O)[C@]1(C)O [Ery A, Erythromycin A, reference compound] | 100 | > 100 | > 100 | 1.56 | 0.02 | 0.2 | 0.02 | > 100 | 1.56 | 100
CC[C@H]1OC(=O)[C@H](C)C[C@H](C)[C@@H](O[C@@H]2O[C@H](C)C[C@H](N(C)C)[C@H]2O)[C@](C)(OC)C[C@@H](C)C(=O)[C@H](C)[C@H]2OC(=O)O[C@@]21C [Ex. 3] | > 100 | > 100 | > 100 | > 100 | 0.2 | 0.78 | 0.2 | > 100 | 3.1 | > 100
CC[C@H]1OC(=O)[C@H](C)C[C@H](C)[C@@H](O[C@@H]2O[C@H](C)C[C@H](N(C)C)[C@H]2O)[C@](C)(OC)C[C@@H](C)C(=NOCOCCOC)[C@H](C)[C@@H](O)[C@]1(C)O [Ex. 8] | 100 | > 100 | > 100 | 1.56 | 0.02 | 0.2 | 0.02 | > 100 | 1.56 | 100
CC[C@H]1OC(=O)[C@H](C)C[C@H](C)[C@@H](O[C@@H]2O[C@H](C)C[C@H](N(C)C)[C@H]2O)[C@](C)(OC)C[C@@H](C)C(=O)[C@H](C)[C@H]2N(CCCCc3ccccc3)C(=O)O[C@]12C [Ex. 4] | 100 | 50 | > 100 | 12.5 | 0.02 | 1.56 | 0.1 | 100 | 1.56 | 50
